Measurements reported in patent US20130281504A1, “Reduction of Microglia-Mediated Neurotoxicity by KCa3.1 Inhibition” (THE REGENTS OF THE UNIVERSITY OF CALIFORNIA, priority 2010, published 2013).
Several values for one entry are separate records, joined by “and”; a condition that tells them apart may be missing. Equal entries are not always repeated.

What was measured:
[1] = Plasma protein binding by ultrafiltration; type: in vitro ADME, rat; conditions: rat plasma spiked with 50 and 100 μM
Protocol: (§1) The centrifugate (=free TRAM-34) was directly analyzed for TRAM-34 by HPLC-MS. The retentate was collected by inverting the filter into an Eppendorf tube and spinning at 14000 rpm for 15 min.

plasma protein = assay: Plasma protein binding by ultrafiltration; type: in vitro ADME, rat
Protocol: as §1

[2] = system: experimental autoimmune encephalomyelitis (EAE); conditions: mice; cited from earlier work
microglia = assay: AβO-induced microglia proliferation/activation (cell number); type: cell-based, mouse; conditions: soluble AD hippocampus extracts
[3] = system: middle cerebral artery occlusion (MCAO); assay: MCAO with 7 days of reperfusion, treatment started 12 h after reperfusion; type: in vivo, rat; design: key to neurological deficit, 4-score system: 0 = no deficit to 4 = most severe deficit; key to neurological deficit, 14-score system: 14-point limb placing score; lower = more severe deficit; conditions: for mean infarct size (H&E defined lesion area): controls 22.6±3.6%
Excerpt: Adult male Wistar rats weighing 160-180 g were purchased from Charles River (Wilmington, Mass.), acclimatized to the new vivarium for 5-7 days and used for the surgery when they weighed 200-230 g. Rats were anesthetized using box induction with 5% isoflurane and then maintained on 0.5%-1.5% isoflurane in medical grade oxygen via a facemask. In order to assure consistent reduction of cerebral blood flow (CBF) throughout the procedure, we affixed a small hand-made adaptor for the Laser Doppler probe (Moor Instruments, Wilmington, Del.) to the surface of the skull. The center of the adapter was 5 mm lateral to the central fusion line and 2.5 mm posterior to bregma. Instant adhesive and dental cement were applied to the base and around the edges of the small plastic adapter to hold the Doppler probe. The adapter with the attached probe remained in place throughout the MCAO surgery to confirm continuous occlusion and later the establishment of reperfusion. Focal cerebral ischemia was then induced by occlusion of the left middle cerebral artery (MCA). The left common carotid artery was surgically exposed, the external carotid artery was ligated distally from the common carotid artery, and a silicone rubber coated nylon monofilament with a tip diameter of 0.43±0.02 mm (Doccol Corp., Redlands, Calif.) was inserted into the external carotid artery and advanced into the internal carotid artery to block the origin of the middle cerebral artery (when maximum CBF reduction observed). The filament was kept in place for 90 min and then withdrawn and removed from the blood vessel to restore blood supply. […] Neurological deficits were scored according to a 4-score test and a tactile and/or proprioceptive limb-placing test as follows: 1) 4-score test (higher score for more severe neurological deficits): 0=no apparent deficit; 1=contralateral forelimb is consistently flexed during suspension by holding the tail; 2=decreasing grip ability on the contralateral forelimb while tail pulled; 3=spontaneous movement in all directions but circling to contralateral side when pulled by the tail; 4=spontaneous contralateral circling or depressed level of consciousness. 2) 14-score limb placing test (lower score for more severe neurological deficits): Proprioception, forward extension, lateral abduction, and adduction were tested with vision or tactile stimuli. For visual limb placing, rats were held and slowly moved forward or lateral toward the top of a table. Normal rats placed both forepaws on the tabletop. Tactile forward and lateral limb placing were tested by lightly contacting the table edge with the dorsal or lateral surface of a rat's paw while avoiding whisker contact and covering the eyes to avoid vision. For proprioceptive hind limb placing, each rat was pushed along the edge of an elevated platform in order to test proprioceptive hind limb adduction. The paw was pulled down and away from the platform edge, and the ability to retrieve and place the paw on the table surface upon sudden release was assessed. For each test, limb placing scores were 0=no placing; 1=incomplete and/or delayed (>2 seconds) placing; or 2=immediate and complete placing. For each body side, the maximum summed visual limb placing score was 4 and the maximum summed tactile and proprioceptive limb placing score, including the platform test, was 10.
Rats were euthanized with an overdose of isoflurane. Blood samples for determination of electrolytes, pH, pCO2, glucose and hemoglobin (I-STAT; Abbott, Princeton, N.J.) were drawn from the vena cava and brains quickly removed and sectioned into eight 2-mm thick slices starting from the frontal pole. Slices were then fixed in 10% buffer formalin embedded in paraffin and sectioned at 5 Sections were stained with hematoxylin & eosin and scanned. […]

[4] = system: middle cerebral artery occlusion (MCAO); assay: MCAO with 7 days of reperfusion, treatment started 2 h after reperfusion; type: in vivo, rat; conditions: 10 mg/kg twice daily 7 days from 2 h after reperfusion
Excerpt: Adult male Wistar rats weighing 160-180 g were purchased from Charles River (Wilmington, Mass.), acclimatized to the new vivarium for 5-7 days and used for the surgery when they weighed 200-230 g. Rats were anesthetized using box induction with 5% isoflurane and then maintained on 0.5%-1.5% isoflurane in medical grade oxygen via a facemask. In order to assure consistent reduction of cerebral blood flow (CBF) throughout the procedure, we affixed a small hand-made adaptor for the Laser Doppler probe (Moor Instruments, Wilmington, Del.) to the surface of the skull. The center of the adapter was 5 mm lateral to the central fusion line and 2.5 mm posterior to bregma. […] Neurological deficits were scored according to a 4-score test and a tactile and/or proprioceptive limb-placing test as follows: 1) 4-score test (higher score for more severe neurological deficits): 0=no apparent deficit; 1=contralateral forelimb is consistently flexed during suspension by holding the tail; 2=decreasing grip ability on the contralateral forelimb while tail pulled; 3=spontaneous movement in all directions but circling to contralateral side when pulled by the tail; 4=spontaneous contralateral circling or depressed level of consciousness. […] The paw was pulled down and away from the platform edge, and the ability to retrieve and place the paw on the table surface upon sudden release was assessed. […]

KCa3.1 = molecular target: T1, KCa3.1 (Mus musculus, UniProt O89109); assay: Whole-cell patch-clamp of mouse microglia KCa currents; type: cell-based; conditions: 1 μM TRAM-34; voltage-ramps −120 to +40 mV; FIG. 4A
T1 construct: endogenous in cells; host or cells: primary mouse microglia harvested from the astrocyte feeder layer
T1 sequence (O89109 whole entry): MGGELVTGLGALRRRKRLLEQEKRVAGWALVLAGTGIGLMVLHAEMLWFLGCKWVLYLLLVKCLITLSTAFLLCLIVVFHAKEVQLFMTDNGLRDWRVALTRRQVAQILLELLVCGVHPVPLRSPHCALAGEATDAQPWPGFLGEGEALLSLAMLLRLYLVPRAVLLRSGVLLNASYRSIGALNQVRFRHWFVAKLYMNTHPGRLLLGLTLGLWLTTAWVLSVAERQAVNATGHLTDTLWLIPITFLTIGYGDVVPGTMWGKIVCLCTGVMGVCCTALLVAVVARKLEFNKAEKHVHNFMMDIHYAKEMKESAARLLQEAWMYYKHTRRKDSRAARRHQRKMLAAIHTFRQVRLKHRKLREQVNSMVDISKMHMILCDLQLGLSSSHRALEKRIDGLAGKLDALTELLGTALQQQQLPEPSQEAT
Protocol: Microglia, that were “floating off” from their feeding astrocyte layer, were harvested with a pipette, washed, attached to poly-L-lysine coated cover-slips, and then studied in the whole-cell mode of the patch-clamp technique with an EPC-10 HEKA amplifier. The pipette solution contained 145 mM K^+ aspartate, 2 mM MgCl2, 10 mM HEPES, 10 mM K2EGTA and 8.5 mM CaCl2 (1 μM free Ca^2+), pH 7.2, 290 mOsm. To reduce chloride “leak” currents, we used a Na^+ aspartate external solution containing 160 mM Na^+ aspartate, 4.5 mM KCl, 2 CaCl2, 1 mM MgCl2, 5 mM HEPES, pH 7.4, 300 mOsm. K^+ currents were elicited with voltage ramps from −120 to 40 mV of 200 ms duration applied every 10 s. […] Cell capacitance, a direct measurement of cell surface area, was continuously monitored during recordings. KCa3.1 current density was determined by dividing the TRAM-34-sensitive slope conductance by the cell capacitance.

[5] = Physiological parameters by I-STAT in venous blood of MCAO rats; type: in vivo, rat; conditions: After Reperfusion, ±SD

With `Clc1ccccc1C(c1ccccc1)(c1ccccc1)n1cccn1` [TRAM-34, 1-[(2-chlorophenyl)diphenylmethyl]-1H-pyrazole] the fraction unbound [1] was 0.02, the “unbound (=free) fraction” value (plasma protein; rat plasma) was 2.0±0.4% and 2% and the plasma protein binding (plasma protein; rat plasma spiked with 50 and 100 μM) was 98%. The “experimental autoimmune encephalomyelitis (EAE)” value [2] was “treats”, the “microglia activation / mitogenic effect induced by human brain AβO” value (microglia) was “blocked” and the “neurological deficit, 14-score system” value ([3]; 10 mg/kg group, 12 h after reperfusion (start of treatment), vehicle 4.3±0.94) was 4.8±0.63. For the same molecule, the “neurological deficit, 4-score system” value ([3]; 10 mg/kg group, 12 hours after reperfusion (start of treatment), vehicle 3.1±0.20) was 3.3±0.50, the “neurological deficit, 4-score system” value ([3]; 10 mg/kg, 196 h (=7 days) after reperfusion, vehicle 1.5±0.30, P=0.24) was 0.8±0.10 and the “neurological deficit, 14-score system” value ([3]; 10 mg/kg, 196 h (=7 days) after reperfusion, vehicle 7.5±0.46, P=0.004) was 9.8±0.01. For the same molecule, the “microglia activation (ED1+ area)” value ([3]; 10 mg/kg, delayed administration) was “did not result in a significant reduction”, the brain shrinkage ([3]; 10 mg/kg, P=0.11, not significant) was “tended to reduce” and the “number of TUNEL-positive cells in cortex and striatum” value ([3]; 10 mg/kg, P=0.143 cortex, 0.230 striatum) was “did not reach statistical significance”. For the same molecule, the “mean infarct size (H&E defined lesion area)” value ([3]; 10 mg/kg, mean±SEM, P=0.039) was 11.3±2.8%, the “neurological deficit, 14-score system” value ([3]; 40 mg/kg group, 12 h after reperfusion (start of treatment), vehicle 4.3±0.94) was 3.4±0.46 and the “neurological deficit, 4-score system” value ([3]; 40 mg/kg group, 12 hours after reperfusion (start of treatment), vehicle 3.1±0.20) was 3.0±0.80. For the same molecule, the “neurological deficit, 4-score system” value ([3]; 40 mg/kg, day-7 / 196 h after reperfusion, vehicle 1.5±0.30, P=0.02) was 0.5 and 0.4±0.01, the “neurological deficit, 14-score system” value ([3]; 40 mg/kg, day-7 / 196 h after reperfusion, vehicle 7.5±0.46, P<0.001) was 11±0.38 and 12 and the “number of apoptotic (TUNEL positive) cells in cortex and striatum” value ([3]; 40 mg/kg, P=0.0067 cortex, 0.033 striatum) was “significantly reduced”. The “average number of surviving NeuN+ neurons in the infarcted hemisphere” value ([3]; 40 mg/kg, P=0.052) was “increase”, the “mean infarct size (H&E defined lesion area)” value ([3]; 40 mg/kg, P=0.004) was 8.1±1.9% and the “ED1+ area in the infarcted hemisphere” value ([3]; 40 mg/kg, vehicle 3770.6±594.2, P=0.03, mean±SEM) was 1632.6±363.75 pixels/mm^2. For the same molecule, the “reduction of infarct area (H&E, day-7)” value ([3]; 10 or 40 mg/kg i.p. twice daily 7 days from 12 h after reperfusion, both doses) was about 50%, the “amount of activated (ED1+) microglia/macrophages in infarcted hemisphere” value [4] was “reduced” and the “mean infarct area, % of ipsolateral triphenyltetrazolium chloride positive hemisphere area” value ([4]; control 18.8±3.5%, mean±SEM, P=0.007) was 6.6±1.9%. The “sensitivity of voltage-independent current component” value (KCa3.1) was “sensitive”, the BUN ([5]; TRAM-34 10 mg/kg) was 12.8 ± 7.2 mg/dL and the Glucose ([5]; TRAM-34 10 mg/kg) was 179.2 ± 48.2 mg/dL. The “Na^+” value ([5]; TRAM-34 10 mg/kg) was 134.4 ± 2.3 mmol/L, the BUN ([5]; TRAM-34 40 mg/kg) was 22.2 ± 4.0 mg/dL and the Glucose ([5]; TRAM-34 40 mg/kg) was 171.8 ± 54.3 mg/dL. The “HCO3^−” value ([5]; TRAM-34 40 mg/kg) was 32.5 ± 5.7 mmol/L and the pH ([5]; TRAM-34 40 mg/kg) was 7.4 ± 0.13.
